Results published in patent US20110028504A1, “Formulation of radioprotective alpha beta unsaturated aryl sulfones” (ONCONOVA THERAPEUTICS, INC., priority 2005, published 2011).
Marks after values point to notes of the source that are not given here.

Test: pH stability testing at 75° C. (HPLC)
Format: physicochemical
Details: for Concentration of the ON.1210.Na determined by HPLC during the stability study: 75° C.
Description: (§1) The drug is dissolved in different pH buffers as outlined in Table 20. One hundred mL of each solution is prepared in a volumetric flask. Each solution is filtered through a 0.22 um filter. Approximately, four mL of the above solution is placed in 5 ml ampoules and sealed by a propane torch. The pH of the solution is determined at time zero and at each time interval. All the ampoules are placed in a 75° C. constant temperature oven. Any color changes or precipitation in the solution during the sample collection is visually observed. Concentration of the drug is determined at time zero and other time intervals by HPLC.
as §1, with “prepared in volumetric flask.” for “prepared in a volumetric flask.”, “filtered through 0.22 um” for “filtered through a 0.22 um”, “by HPLC. The pH and drug content of each sample are determined.” for “by HPLC.”
The data from the pH stability study is analyzed by plotting Log (conc.) versus time.
The rate constant for the degradation is determined using a linear regression at each individual pH.

Compound: O=C([O-])c1ccc(/C=C/S(=O)(=O)Cc2ccc(Cl)cc2)cc1.[Na+] [ON.1210.Na, (E)-4-Carboxystyryl-4-chlorobenzylsulfone, Sodium Salt]
- Concentration of the ON.1210.Na determined by HPLC during the stability study (pH 6 buffer, 17 days, pH of the solution 6.21): 18.15 µg/mL
- Concentration of the ON.1210.Na determined by HPLC during the stability study (pH 6 buffer, 28 days, pH of the solution 5.81): 17.5401 µg/mL
- Concentration of the ON.1210.Na determined by HPLC during the stability study (pH 6 buffer, 35 days, pH of the solution 5.92): 17.3979 µg/mL
- Concentration of the ON.1210.Na determined by HPLC during the stability study (pH 6 buffer, 42 days, pH of the solution 5.94): 16 µg/mL
- Concentration of the ON.1210.Na determined by HPLC during the stability study (pH 6 buffer, 54 days, pH of the solution 5.90): 14.7174 µg/mL
- Kobs, first order rate constant for the degradation (pH 7.4, 75° C.): 0.0037 day⁻¹
- Concentration of the ON.1210.Na determined by HPLC during the stability study (pH 7.4 buffer, 0 hours, pH of the solution 7.41): 485.952 µg/mL
- Concentration of the ON.1210.Na determined by HPLC during the stability study (pH 7.4 buffer, 1 day, pH of the solution 7.42): 485.8206 µg/mL
- Concentration of the ON.1210.Na determined by HPLC during the stability study (pH 7.4 buffer, 3 days, pH of the solution 7.52): 481.4637 µg/mL
- Concentration of the ON.1210.Na determined by HPLC during the stability study (pH 7.4 buffer, 5 days, pH of the solution 7.44): 484.009 µg/mL
- Concentration of the ON.1210.Na determined by HPLC during the stability study (pH 7.4 buffer, 10 days, pH of the solution 7.42): 473.2525 µg/mL
- Concentration of the ON.1210.Na determined by HPLC during the stability study (pH 7.4 buffer, 17 days, pH of the solution 7.41): 466.5611 µg/mL
- Concentration of the ON.1210.Na determined by HPLC during the stability study (pH 7.4 buffer, 28 days, pH of the solution 7.2): 434.5598 µg/mL
- Concentration of the ON.1210.Na determined by HPLC during the stability study (pH 7.4 buffer, 35 days, pH of the solution 7.34): 428.5503 µg/mL
- Concentration of the ON.1210.Na determined by HPLC during the stability study (pH 7.4 buffer, 42 days, pH of the solution 7.36): 416.3353 µg/mL
- Concentration of the ON.1210.Na determined by HPLC during the stability study (pH 7.4 buffer, 54 days, pH of the solution 7.31): 403.267 µg/mL
- Kobs, first order rate constant for the degradation (pH 8.0, 75° C.): 0.0064 day⁻¹
- Concentration of the ON.1210.Na determined by HPLC during the stability study (pH 8.0 buffer, 0 hours, pH of the solution 8.01): 494.8540 µg/mL
- Concentration of the ON.1210.Na determined by HPLC during the stability study (pH 8.0 buffer, 1 day, pH of the solution 8.08): 493.8002 µg/mL
- Concentration of the ON.1210.Na determined by HPLC during the stability study (pH 8.0 buffer, 3 days, pH of the solution 8.04): 485.8134 µg/mL
- Concentration of the ON.1210.Na determined by HPLC during the stability study (pH 8.0 buffer, 5 days, pH of the solution 7.98): 486.042 µg/mL
- Concentration of the ON.1210.Na determined by HPLC during the stability study (pH 8.0 buffer, 10 days, pH of the solution 7.98): 462.5487 µg/mL
- Concentration of the ON.1210.Na determined by HPLC during the stability study (pH 8.0 buffer, 17 days, pH of the solution 8.02): 441.454 µg/mL
- Concentration of the ON.1210.Na determined by HPLC during the stability study (pH 8.0 buffer, 28 days, pH of the solution 7.81): 398.9563 µg/mL
- Concentration of the ON.1210.Na determined by HPLC during the stability study (pH 8.0 buffer, 35 days, pH of the solution 7.33, new degradation product with retention time 4.52 min): 249.7589** μg/mL
- Concentration of the ON.1210.Na determined by HPLC during the stability study (pH 8.0 buffer, 42 days, pH of the solution 7.36): 378.4188 µg/mL
- Concentration of the ON.1210.Na determined by HPLC during the stability study (pH 8.0 buffer, 54 days, pH of the solution 7.9): 353.5676 µg/mL
- Kobs, first order rate constant for the degradation (pH 9.0, 75° C.): 0.0104 day⁻¹
- Concentration of the ON.1210.Na determined by HPLC during the stability study (pH 9.0 buffer, 0 hours, pH of the solution 9.02): 475.7458 µg/mL
- Concentration of the ON.1210.Na determined by HPLC during the stability study (pH 9.0 buffer, 1 day, pH of the solution 9.1): 463.3368 µg/mL
- Concentration of the ON.1210.Na determined by HPLC during the stability study (pH 9.0 buffer, 3 days, pH of the solution 9.12): 436.1314 µg/mL
- Concentration of the ON.1210.Na determined by HPLC during the stability study (pH 9.0 buffer, 5 days, pH of the solution 8.72): 422.51 µg/mL
- Concentration of the ON.1210.Na determined by HPLC during the stability study (pH 9.0 buffer, 10 days, pH of the solution 8.74): 379.1650 µg/mL
- Concentration of the ON.1210.Na determined by HPLC during the stability study (pH 9.0 buffer, 17 days, pH of the solution 8.75): 351.6448 µg/mL
- Concentration of the ON.1210.Na determined by HPLC during the stability study (pH 9.0 buffer, 28 days, pH of the solution 8.53): 304.3917 µg/mL
- Concentration of the ON.1210.Na determined by HPLC during the stability study (pH 9.0 buffer, 35 days, pH of the solution 8.46, two new degradation products with retention time of 4.52 and 3.6 minutes): 199.584*** μg/mL
- Concentration of the ON.1210.Na determined by HPLC during the stability study (pH 9.0 buffer, 42 days, pH of the solution 8.45): 300.1106 µg/mL
- Concentration of the ON.1210.Na determined by HPLC during the stability study (pH 9.0 buffer, 54 days, pH of the solution 8.47): 267.741 µg/mL
